In patent US20210276971A1, “TRIAZAMACROCYCLE-DERIVED CHELATOR COMPOSITIONS FOR COORDINATION OF IMAGING AND THERAPY METAL IONS AND METHODS OF USING SAME” (The Research Foundation for The State University of New York, priority 2018, published 2021):

Columns and labels:
[1] = EDTA challenge of ^44Sc complexes (10× excess EDTA, 37° C.); assay type: physicochemical; conditions: for % complex stability: EDTA, 10× eq, 37° C.; for kinetic inertness (transchelation): presence of 10×EDTA
Experimental: Challenge experiments. To measure relative complex stability, 10 uL of ligand solution at 100000 ng/mL was added to 100 uL EDTA to produce 10× excess EDTA. Mixtures were incubated at 37° C. for 1 h. To evaluate plasma stability, 10 uL of ligand solution at 100000 ng/mL added to 50 uL mouse plasma. Incubated at 37° C. for 1 h. Tubes were intermittently vortexed and 2 uL was removed at the designated timepoints and spotted onto TLC plates.

[2] = Plasma stability of ^44Sc complexes (37° C.); assay type: in vitro ADME, Rat; conditions: for % complex stability: Rat Plasma, 37°
[3] = HPLC check of interconversion of metal-complex diastereomers; assay type: physicochemical; conditions: HPLC-separated peaks of Sc(III)/Lu(III) complexes, reinjected
Experimental: FIG. 13: Sc-Overlay and Lu-Overlay—A stock solution of PICAGA (2 mg/mL) in DI water was prepared. 1.1 equivalents of metal added to the ligand. ScCl3.6H2O or Lu(ClO4)3.6H2O. pH was adjusted to 6-7 with 5 M NaOH. Complex solutions were injected on HPLC. Each peak associated with the PICAGA (5.7 and 5.9 min) was collected and reinjected at 20 min.
A direct DO3A-monoamide DUPA conjugate analogue was also synthesized. The fully assembled conjugates DOTA-DUPA and picaga-DUPA were fully deprotected and characterized using ^1H-, ^13C-NMR and mass spectrometry. Following complete characterization, the non-radioactive scandium complexes were formed and characterized using HPLC-analysis. As the glutarate arm is introduced as the pure S-entantiomer, where the alpha carbon retains the chiral alpha carbon and subsequently introduces chirality to the ligand.

Row | SMILES | % complex stability ([1]; t = 0) [%] | % complex stability ([1]; t = 10 min) [%] | % complex stability ([1]; t = 30 min) [%] | % complex stability ([1]; t = 60 min) [%] | kinetic inertness (transchelation) [1] | % complex stability ([2]; t = 10 min) [%] | % complex stability ([2]; t = 30 min) [%] | % complex stability ([2]; t = 60 min) [%] | kinetic inertness (transchelation) ([2]; rat plasma) | interconversion of complex diastereomers [3] | interconversion of complex diastereomers ([3]; listed as picaga-DUPA)
1 | O=C(O)CN1CCN(CC(=O)O)CCN(Cc2cccc(C(=O)O)n2)CC1 [MONOPIC, 6-{[4,7-Bis(carboxymethyl)-1,4,7-triazonan-1-yl]methyl}-2-pyridinecarboxylic acid] | 91.4 | 91.5 ± 0.8 | 91.4 ± 0.8 | 90.5 ± 0.6 | no detectable transchelation | 90.1 ± 0.8 | 91.0 ± 0.2 | 91.6 ± 0.3 | no detectable transchelation |  | 
2 | O=C(O)CN1CCN(CC(=O)O)CCN(CC(=O)O)CCN(CC(=O)O)CC1 [DOTA, reference compound] | 9.41 | 74.4 ± 0.4 | 73.3 ± 0.5 | 74.7 ± 0.4 |  | 74.8 ± 1.8 | 74.4 ± 0.7 | 75.5 ± 0.9 |  |  | 
3 | O=C(O)CC[C@H](NC(=O)N[C@@H](CCC(=O)NCCCCCNC(=O)CCC(C(=O)O)N1CCN(CC(=O)O)CCN(Cc2cccc(C(=O)O)n2)CC1)C(=O)O)C(=O)O (stereo in doubt) [PICAGA, 2-{3-[(R)-1-Carboxy-4-[5-(4-carboxy-4-{7-(carboxymethyl)-4-[(6-carboxy-2-pyridyl)methyl]-1,4,7-triazonan-1-yl}butyrylamino)pentylamino]-4-oxobutyl]ureido}glutaric acid] |  |  |  |  |  |  |  |  |  | limited interconversion | do not interconvert even after 12 hours
4 | O=C(O)CN1CCN(Cc2cccc(C(=O)O)n2)CCN(Cc2cccc(C(=O)O)n2)CC1 [NO1A2PIC] | 90.2 | 77.4 ± 5.2 | 67.8 ± 0.9 | 51.5 ± 0.4 | diminished complex inertness | 98.9 ± 0.3 | 98.3 ± 0.1 | 97.4 ± 0.4 |  |  | 
